Source: PubChem BioAssay AID624129 (Sanford-Burnham Center for Chemical Genomics, 2012)
The source made the active and inactive calls. No rule for the calls is given here.

What was measured:
Experiment in all cases: potency against CXCR6 with APJ panel – cell-based, beta-arrestin, DiscoveRx, uHTS hits, dose response (AID 624129)
[1] = biological target: Beta-galactosidase (Escherichia coli) (UniProt Q8VNN2); conditions: CXCR6 beta-arrestin (DiscoveRx) antagonist cell assay, b-galactosidase
[2] = biological target: Apelin receptor (Homo sapiens) (UniProt P35414); conditions: CXCR6 beta-arrestin (DiscoveRx) antagonist cell assay, APJ
[3] = biological target: C-C chemokine receptor type 6 (Homo sapiens) (UniProt P51684); conditions: CXCR6 beta-arrestin (DiscoveRx) antagonist cell assay
[4] = biological target: C-X-C chemokine receptor type 6 (Homo sapiens) (UniProt O00574); conditions: CXCR6 beta-arrestin (DiscoveRx) antagonist cell assay
[5] = dose range 1, mean IC50 across replicates
[6] = CCR6, dose range 1, mean IC50 across replicates
[7] = CXCR6, dose range 1, mean IC50 across replicates
[8] = CXCR6, run 1, dose range 2, at 80 µM (top of the series)

C-X-C chemokine receptor type 6 (Homo sapiens), sequence (O00574 whole entry, looked up): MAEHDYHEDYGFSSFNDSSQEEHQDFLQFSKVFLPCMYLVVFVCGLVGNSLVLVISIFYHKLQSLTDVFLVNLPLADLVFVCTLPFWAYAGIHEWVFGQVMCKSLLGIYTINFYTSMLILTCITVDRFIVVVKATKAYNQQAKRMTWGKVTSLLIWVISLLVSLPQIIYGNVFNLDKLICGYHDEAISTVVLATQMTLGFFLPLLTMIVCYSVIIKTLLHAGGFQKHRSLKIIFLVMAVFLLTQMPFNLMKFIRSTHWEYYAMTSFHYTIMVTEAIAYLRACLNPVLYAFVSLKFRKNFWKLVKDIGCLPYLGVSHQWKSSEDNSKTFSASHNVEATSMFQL
Beta-galactosidase (Escherichia coli), sequence (Q8VNN2 whole entry, looked up): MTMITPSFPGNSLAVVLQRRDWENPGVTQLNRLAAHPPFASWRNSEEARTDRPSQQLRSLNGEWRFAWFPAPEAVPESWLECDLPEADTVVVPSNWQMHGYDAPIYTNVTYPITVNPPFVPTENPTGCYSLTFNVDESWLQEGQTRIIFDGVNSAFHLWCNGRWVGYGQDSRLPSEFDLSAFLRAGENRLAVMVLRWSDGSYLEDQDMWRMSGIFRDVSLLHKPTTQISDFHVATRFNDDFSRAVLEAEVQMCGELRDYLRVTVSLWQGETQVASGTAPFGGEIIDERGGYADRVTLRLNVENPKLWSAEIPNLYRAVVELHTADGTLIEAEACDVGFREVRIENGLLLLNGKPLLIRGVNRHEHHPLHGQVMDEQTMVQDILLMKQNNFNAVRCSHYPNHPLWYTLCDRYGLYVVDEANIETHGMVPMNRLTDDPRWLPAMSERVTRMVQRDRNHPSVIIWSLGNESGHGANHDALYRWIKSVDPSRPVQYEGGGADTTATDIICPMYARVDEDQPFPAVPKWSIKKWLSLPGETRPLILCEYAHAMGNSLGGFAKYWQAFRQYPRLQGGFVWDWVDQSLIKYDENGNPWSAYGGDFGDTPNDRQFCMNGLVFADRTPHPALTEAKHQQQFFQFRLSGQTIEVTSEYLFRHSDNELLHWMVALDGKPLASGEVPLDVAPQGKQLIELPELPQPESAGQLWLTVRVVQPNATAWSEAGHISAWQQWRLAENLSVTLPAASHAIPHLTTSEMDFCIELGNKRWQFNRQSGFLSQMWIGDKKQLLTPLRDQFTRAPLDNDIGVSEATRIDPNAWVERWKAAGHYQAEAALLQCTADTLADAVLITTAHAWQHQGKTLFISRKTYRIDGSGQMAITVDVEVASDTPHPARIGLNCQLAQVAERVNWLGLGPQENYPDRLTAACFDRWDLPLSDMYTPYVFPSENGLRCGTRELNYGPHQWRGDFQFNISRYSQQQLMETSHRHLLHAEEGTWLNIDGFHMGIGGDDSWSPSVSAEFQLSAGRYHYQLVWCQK

| SMILES | IC50 ([1]; dose range 1) | IC50 [1, 5] [µM] | IC50 ([2]; dose range 1) | IC50 [2, 5] [µM] | IC50 ([2]; run 2, dose range 1) [µM] | IC50 ([2]; run 3, dose range 1) [µM] | IC50 ([3]; CCR6, dose range 1) | IC50 [3, 6] [µM] | IC50 ([3]; CCR6, run 2, dose range 1) [µM] | IC50 ([4]; CXCR6, dose range 1) | IC50 [4, 7] [µM] | IC50 ([4]; CXCR6, run 1, dose range 2) [µM] | IC50 ([4]; CXCR6, run 2, dose range 1) [µM] | IC50 ([4]; CXCR6, run 2, dose range 2) [µM] | inhibition [4, 8] [%] | inhibition ([4]; CXCR6, run 1, dose range 2, at 10 µM (top of the series)) [%] |
| --- | --- | --- | --- | --- | --- | --- | --- | --- | --- | --- | --- | --- | --- | --- | --- | --- |
| O=Cc1s/c(=N\S(=O)(=O)c2ccccc2)n(CCCCl)c1Cl | 15.9 µM | 15.9 | 6.78 µM | 6.28 | 5.42 | 6.63 | 2.79 µM | 3.11 | 3.43 | 4.95 µM | 4.83 | 5.13 | 4.89 | 4.35 | – | – |
| S=C(NCCCN1CCOCC1)Nc1ccc(Cl)cc1 | 26.5 µM | 26.5 | 13.7 µM | 14.5 | 16 | 13.7 | 7.62 µM | 9.33 | 11 | inactive | 12.9 | – | 11 | – | 118 | – |
| O=C(Nc1cccc(C(F)(F)F)c1)Oc1ccc(Cl)c2cccnc12 | > 80 µM (inactive) | > 80 | 0.347 µM | 0.41 | > 80 | 0.463 | 0.491 µM | 0.54 | 0.589 | 0.874 µM | 0.702 | – | 0.53 | – | 53.2 | – |
| O=C1C(=C(c2ccccc2)N2CCOCC2)Cc2ccccc21 | > 80 µM (inactive) | > 80 | 15.3 µM | 13.2 | 11.8 | 12.5 | 8.91 µM | 8.89 | 8.87 | 8.74 µM | 9.51 | 9.93 | 10.3 | 9.08 | – | – |
| CCN(c1ccccc1)S(=O)(=O)c1ccc(NC(=O)c2nc(S(C)(=O)=O)ncc2Cl)cc1 | > 80 µM (inactive) | > 80 | 16.2 µM | 16 | 15.3 | 16.4 | 11.6 µM | 11 | 10.3 | 10.8 µM | 10.9 | 10.5 | 11.5 | 10.8 | – | – |
| O=C(Nc1nc2c(F)cc(F)cc2s1)c1ccccn1 | > 80 µM (inactive) | > 80 | 0.798 µM | 1.59 | 2.38 | > 80 | 0.66 µM | 1.03 | 1.4 | 1.4 µM | 1.11 | 0.803 | 1.23 | 1 | – | – |
| NNc1nc(-c2ccccc2)cc(-c2ccccc2O)n1 | > 80 µM (inactive) | > 80 | 5.81 µM | 8.52 | 9.7 | 10 | 7.84 µM | 7.29 | 6.75 | 9.66 µM | 6.87 | 3.62 | 7.93 | 6.29 | – | – |
| COC(=O)c1ccc2c(c1)C(C)(C)C(/C=C/c1ccc(OC)c(OC)c1OC)=[N+]2C | > 80 µM (inactive) | > 80 | 15.1 µM | 15 | 14.3 | 15.8 | 7.5 µM | 9.27 | 11 | 11.4 µM | 9.1 | 7.35 | 10.4 | 7.23 | – | – |
| CC(=O)OC1C2(CC3N4C(=O)C5(CO)SSC4(CC31O)C(=O)N5C)OC(C)C(C)(C)C2=O (stereo not given) | > 80 µM (inactive) | > 80 | 1.1 µM | 1.22 | 0.918 | 1.64 | 1.34 µM | 1.35 | 1.36 | 0.925 µM | 0.724 | 0.497 | 0.936 | 0.54 | – | – |
| S=C(N/N=C/c1ccccc1)N1CCOCC1 | > 80 µM (inactive) | > 80 | 6.85 µM | 7 | 7.06 | 7.08 | 5.59 µM | 6.34 | 7.09 | 7.03 µM | 6.19 | 4.47 | 8.46 | 4.81 | – | – |
| C=C1C(=O)O[C@@H]2C[C@@H](C)[C@@H]3C=CC(=O)[C@@]3(C)[C@@H](OC(=O)CC(=O)O[C@H]3[C@@H]4C(=C)C(=O)O[C@@H]4C[C@@H](C)[C@@H]4C=CC(=O)[C@]43C)[C@H]12 | > 80 µM (inactive) | > 80 | 4.62 µM | 4.97 | 5.28 | 5.02 | 3.11 µM | 3.35 | 3.59 | 4.65 µM | 3.94 | 3.8 | 4.03 | 3.28 | – | – |
| COc1ccc(NC(=O)/C(Cl)=C(/Cl)S(=O)(=O)Cc2ccc(C)cc2)cn1 | > 80 µM (inactive) | > 80 | 0.686 µM | 0.684 | 0.685 | 0.68 | 0.489 µM | 0.686 | 0.883 | 0.963 µM | 0.897 | – | 0.832 | – | – | 99.9 |
| Cc1c(CCCl)c(Cl)n2c(nc3ccccc32)c1C#N | > 80 µM (inactive) | > 80 | > 80 µM (inactive) | > 80 | > 80 | > 80 | inactive | 41.5 | 51.1 | – | 6.38 | 5.75 | > 80 | 7.02 | – | – |
| CCC(=O)OCCNc1cc(Sc2nccn2C)c2nonc2c1[N+](=O)[O-] | > 80 µM (inactive) | > 80 | 7.36 µM | 6.04 | 4.7 | 6.06 | 3.47 µM | 3.87 | 4.26 | 4.22 µM | 4.65 | 4.99 | 4.74 | 4.65 | – | – |
| CCC1CCCCN1S(=O)(=O)c1ccc(NC(=O)c2nc(S(C)(=O)=O)ncc2Cl)cc1 (stereo not given) | > 80 µM (inactive) | > 80 | 7.03 µM | 6.68 | 7.18 | 5.85 | 5.24 µM | 5.53 | 5.82 | 7.42 µM | 8.97 | 10.4 | 7.17 | 10.9 | – | – |
| Cc1ccc(C(=O)/C=C/C(=O)c2ccc(C)cc2)cc1 | > 80 µM (inactive) | > 80 | – | > 80 | > 80 | > 80 | – | > 80 | > 80 | > 80 µM (inactive) | > 80 | – | > 80 | – | 19.4 | – |
| C=C1CC(COc2ccc3c(C)c(Cl)c(=O)oc3c2)(c2ccccc2)OC1=O (stereo not given) | > 80 µM (inactive) | > 80 | > 80 µM (inactive) | 35.3 | 54.2 | 16.4 | 0.174 µM | 1.42 | 2.66 | 3.92 µM | 3.92 | – | > 80 | – | 55.2 | – |
| Cc1cccc(C(=O)Nc2ccc(C(=O)/C=C/c3ccncc3)cc2)c1 | > 80 µM (inactive) | > 80 | – | > 80 | > 80 | > 80 | – | > 80 | > 80 | > 80 µM (inactive) | > 80 | – | > 80 | – | -26.4 | – |
| Cc1cnc(C(=O)Nc2cccc3cccnc23)cn1 | > 80 µM (inactive) | > 80 | – | > 80 | > 80 | > 80 | 28.6 µM | 28.6 | > 80 | inactive | 22.4 | 6.94 | > 80 | 12 | – | – |
| O=S(=O)(Nc1cccc2cccnc12)c1ccccc1 | > 80 µM (inactive) | > 80 | 6.46 µM | 9.91 | 10.7 | 12.5 | 7.66 µM | 9.73 | 11.8 | inactive | 14.5 | – | 14.5 | – | 116 | – |
| Cc1ccc2oc(/N=C(\N)NC(=O)C(C)(C)C)nc2c1 | > 80 µM (inactive) | > 80 | 19.8 µM | 20.9 | 19 | 23.9 | 11.2 µM | 12.3 | 13.4 | inactive | 16.7 | – | 16 | – | 106 | – |
